From the supplement of paper PMC4723716
Where a name gives a salt, the structure may show the parent alone.

Tested on: Plasmodium falciparum NF54 gametocytes
Details: 384, incubation time: 72 h
Description: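 Known antimalarials and MMV control compounds in dose response against each stage (I–V) […] The fitted EC50 is reported as IC50 in µM; '>' marks the top dose reached without a curve.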

[1] = gametocyte stage: Stage I Dose Response IC50 (µM), assay protocol: SaLSSA
[2] = gametocyte stage: Stage II Dose Response IC50 (µM), assay protocol: SaLSSA
[3] = gametocyte stage: Stage III Dose Response IC50 (µM), assay protocol: SaLSSA
[4] = gametocyte stage: Stage IV Dose Response IC50 (µM), assay protocol: SaLSSA
[5] = gametocyte stage: Stage V Dose Response IC50 (µM), assay protocol: SaLSSA
[6] = gametocyte stage: Stage I Dose Response IC50 (µM), assay protocol: TSSA
[7] = gametocyte stage: Stage II Dose Response IC50 (µM), assay protocol: TSSA
[8] = gametocyte stage: Stage III Dose Response IC50 (µM), assay protocol: TSSA
[9] = gametocyte stage: Stage IV Dose Response IC50 (µM), assay protocol: TSSA
[10] = gametocyte stage: Stage V Dose Response IC50 (µM), assay protocol: TSSA

Structure (SMILES): COc1ccc2nc3cc(Cl)ccc3c(Nc3cc(CN4CCCC4)c(O)c(CN4CCCC4)c3)c2n1 [Pyronaridine phosphate]
- IC50 of gametocyte viability [1]: 0.0132 µM
- IC50 of gametocyte viability [2]: 0.01 µM
- IC50 of gametocyte viability [3]: 0.125 µM
- IC50 of gametocyte viability [4]: 2.58 µM
- IC50 of gametocyte viability [5]: 2.08 µM

Structure (SMILES): CCCCN(CCCC)CCC(O)c1cc2c(Cl)cc(Cl)cc2c2cc(C(F)(F)F)ccc12 (stereo not given) [Halofantrine]
- IC50 of gametocyte viability [1]: 0.00161 µM
- IC50 of gametocyte viability [2]: 0.000896 µM
- IC50 of gametocyte viability [3]: 0.0233 µM
- IC50 of gametocyte viability [4]: 1.51 µM
- IC50 of gametocyte viability [5]: 0.0075 µM

Structure (SMILES): COc1ncnc(NS(=O)(=O)c2ccc(N)cc2)c1OC [Sulfadoxine]
- IC50 of gametocyte viability [1]: > 12.5 µM
- IC50 of gametocyte viability [2]: > 12.5 µM
- IC50 of gametocyte viability [3]: > 12.5 µM
- IC50 of gametocyte viability [4]: > 12.5 µM
- IC50 of gametocyte viability [5]: > 12.5 µM

Structure (SMILES): C[C@H]1[C@@H](O)O[C@@H]2O[C@@]3(C)CC[C@H]4[C@H](C)CC[C@@H]1[C@@]24OO3 [Artenimol (Dihydro artemisinin)]
- IC50 of gametocyte viability [6]: 0.00685 µM
- IC50 of gametocyte viability [7]: 0.00766 µM
- IC50 of gametocyte viability [8]: 0.0152 µM
- IC50 of gametocyte viability [9]: 0.0403 µM
- IC50 of gametocyte viability [10]: > 12.5 µM

Structure (SMILES): CC(=O)N(O)CCCCCNC(=O)CCC(=O)N(O)CCCCCNC(=O)CCC(=O)N(O)CCCCCN [Deferoxamine mesylate salt]
- IC50 of gametocyte viability [1]: > 12.5 µM
- IC50 of gametocyte viability [2]: > 12.5 µM
- IC50 of gametocyte viability [3]: > 12.5 µM
- IC50 of gametocyte viability [4]: > 12.5 µM
- IC50 of gametocyte viability [5]: > 12.5 µM

Structure (SMILES): CC1(C)c2nc(-c3ccc(F)cc3)c(Nc3ccc(Cl)cc3)n2CCN1C(=O)CN [KAF(GNF)179]
- IC50 of gametocyte viability [1]: 0.341 µM
- IC50 of gametocyte viability [2]: 0.0641 µM
- IC50 of gametocyte viability [3]: 0.0199 µM
- IC50 of gametocyte viability [4]: 0.00915 µM
- IC50 of gametocyte viability [5]: 0.00336 µM

Structure (SMILES): CCCCN(CCCC)CC(O)c1cc(Cl)cc2c1-c1ccc(Cl)cc1/C2=C/c1ccc(Cl)cc1 (stereo not given) [Lumefantrine] [listing 1 of 2 here]
- IC50 of gametocyte viability [6]: 0.0224 µM
- IC50 of gametocyte viability [7]: 0.0352 µM
- IC50 of gametocyte viability [8]: 0.0227 µM
- IC50 of gametocyte viability [9]: > 9.77 µM
- IC50 of gametocyte viability [10]: > 12.5 µM

Structure (SMILES): COc1cc(C)c2c(Oc3cccc(C(F)(F)F)c3)c(OC)cc(NC(C)CCCN)c2n1 (stereo not given) [Tafenoquine]
- IC50 of gametocyte viability [1]: 4.56 µM
- IC50 of gametocyte viability [2]: 3.68 µM
- IC50 of gametocyte viability [3]: 3.74 µM
- IC50 of gametocyte viability [4]: 3.48 µM
- IC50 of gametocyte viability [5]: 2.45 µM

Structure (SMILES): O[C@@H](c1cc(C(F)(F)F)nc2c(C(F)(F)F)cccc12)[C@H]1CCCCN1 (racemic) [Mefloquine (Racemic)]
- IC50 of gametocyte viability [1]: 0.0441 µM
- IC50 of gametocyte viability [2]: 0.052 µM
- IC50 of gametocyte viability [3]: 0.143 µM
- IC50 of gametocyte viability [4]: 0.818 µM
- IC50 of gametocyte viability [5]: 0.132 µM

Structure (SMILES): CCN(CC)Cc1cc(Nc2ccnc3cc(Cl)ccc23)ccc1O [Amodiaquine]
- IC50 of gametocyte viability [1]: 0.0118 µM
- IC50 of gametocyte viability [6]: 0.0134 µM
- IC50 of gametocyte viability [2]: 0.00579 µM
- IC50 of gametocyte viability [7]: 0.0088 µM
- IC50 of gametocyte viability [3]: 0.0961 µM
- IC50 of gametocyte viability [8]: 0.107 µM
- IC50 of gametocyte viability [4]: 2.46 µM
- IC50 of gametocyte viability [9]: 5.4 µM
- IC50 of gametocyte viability [5]: 1.78 µM
- IC50 of gametocyte viability [10]: > 9.39 µM

Structure (SMILES): Cc1cc(NS(=O)(=O)c2ccc(N)cc2)no1 [Sulfamethoxazole]
- IC50 of gametocyte viability [1]: > 12.5 µM
- IC50 of gametocyte viability [2]: > 12.5 µM
- IC50 of gametocyte viability [3]: > 12.5 µM
- IC50 of gametocyte viability [4]: > 12.5 µM
- IC50 of gametocyte viability [5]: > 12.5 µM

Structure (SMILES): CCCCN(CCCC)CC(O)c1cc(Cl)cc2c1-c1ccc(Cl)cc1/C2=C/c1ccc(Cl)cc1 (stereo not given) [Lumefantrine] [listing 2 of 2 here]
- IC50 of gametocyte viability [1]: 0.0128 µM
- IC50 of gametocyte viability [2]: 0.0131 µM
- IC50 of gametocyte viability [3]: 0.015 µM
- IC50 of gametocyte viability [4]: 0.599 µM
- IC50 of gametocyte viability [5]: 0.0523 µM

Structure (SMILES): CC(C)(N)CNC(=O)CC1CCC2(CC1)OOC1(O2)C2CC3CC(C2)CC1C3 (stereo not given)
- IC50 of gametocyte viability [6]: 0.00821 µM
- IC50 of gametocyte viability [7]: 0.00599 µM
- IC50 of gametocyte viability [8]: 0.00837 µM
- IC50 of gametocyte viability [9]: 0.00742 µM
- IC50 of gametocyte viability [10]: > 12.5 µM

Structure (SMILES): O=C1C(O)=C([C@H]2CC[C@H](c3ccc(Cl)cc3)CC2)C(=O)c2ccccc21 [Atovaquone]
- IC50 of gametocyte viability [6]: > 12.5 µM
- IC50 of gametocyte viability [7]: > 12.5 µM
- IC50 of gametocyte viability [8]: > 12.5 µM
- IC50 of gametocyte viability [9]: > 12.5 µM
- IC50 of gametocyte viability [10]: > 12.5 µM
